What was measured:
p27 (−/−) SMC = assay: SMC migration assay, modified Boyden chamber, bFGF-induced; type: cell-based, mouse
Protocol: (§1) Cell Culture: The murine aortic SMCs were obtained from the explant migration experiments described below, and were subcultured in DMEM containing 20% fetal bovine serum (FBS) at 37° C. in a humidified 95% air-5% CO2 atmosphere (Kobayashi et al., 1993). The growth medium was changed every other day until 80% confluence was reached. The cells used for experiments were from passages #3-6. Verification of SMC phenotype was determined by positive fluorescent staining for α-actin and negative staining for Factor VIII antigen. Cell viability was 95% or greater as determined by trypan blue exclusion at the conclusion of each experiment.
(§2) SMC migration assay: Migration was measured using a 48 well modified Boyden chamber housing a polycarbonate filter with 8 μm pores as described previously (Bornfeldt et al., 1994; Poon et al., 1996). Each membrane was coated with 0.1 mg/ml of collagen in 0.2 M acetic acid for 24 hours before each assay. For each assay, 50 ng/ml of bFGF in DMEM was loaded in quadruplicate wells in the bottom chamber. BSA (0.2% in DMEM without bFGF) was used as a negative control. Rapamycin, FK506 or C3 exoenzyme was directly added to the growth medium for either 48 hours (rapamycin and FK506) or 16 hours (C3 exoenzyme) before the cells were trypsinized, and counted with a hemacytometer. An equal number of cells (2×10^5/ml) in 50 μl was loaded to the top chamber of each well. After 6 hours, non-migrating cells were scraped from the upper surface of the filter. Cells on the lower surface were fixed with methanol and stained with Giemsa stain (Fisher Scientific, N.Y.) . The number of SMC on the lower surface of the filter was determined by counting four high power (X200) fields of constant area per well. Values are expressed as the percentage of cells migrating in response to bFGF after subtraction of the negative control (DMEM+BSA). Experiments were performed at least twice using quadruplicate wells.

wild type murine SMC = assay: as above; type: cell-based, mouse
Protocol: as §1
as §2, with “Rapamycin, FK506 or C3 exoenzyme was directly added to the growth medium for either 48 hours (rapamycin and FK506) or 16 hours (C3 exoenzyme) before the cells were trypsinized, and counted with a hemacytometer.” left out

[1] = tested on: aortic SMC of wild type C57BL/6 mice; assay: Aortic SMC explant migration after in vivo treatment; set-up: species or system mouse
Protocol: (§3) Aortic SMC explant migration: Wild type C57BL/6 mice were purchased from Jackson Laboratory (Bar Harbor, Me.). The p27 (+/−) and p27 (−/−) knockout mice were kindly provided by Dr. Andrew Koff of Memorial Sloan-Kettering Cancer Institute (Kiyokawa et al., 1996). […] The control group was treated with vehicle alone (0.2% sodium CMC, polysorbate 0.25%; Sigma, St. Louis, Mo.). At the conclusion of the treatment protocol, the mice were euthanized with 100 mg/kg of pentobarbital, the aortas excised and the adventitia and surrounding connective tissue were removed. The aortas were then opened by a longitudinal cut and the intima, as well as a thin portion of the subjacent media, were removed. The media were divided into 2 mm×2 mm pieces and placed in 6 well tissue culture plates (35 mm, 22.6 mm diameter, Costar, Cambridge, Mass.) containing DMEM with 20% FBS. The culture media was changed every other day. The migration of SMC out of the explant was observed under the microscope daily following explant. The total number of cells explanted was determined for each animal's explants on a daily basis. The results in FIG. 5 are presented as the mean percentage (±SD) of inhibition of migration (by rapamycin or taxol) as compared to control (untreated) for at least 4 animals from each group. The SMC phenotype was confirmed as previously described (Spector et al., 1997).

[2] = tested on: aortic SMC of p27 (+/−) mice; assay: as above; set-up: species or system mouse; details: 4 mg/kg/day for 5 days IP, p<0.05
Protocol: Aortic SMC explant migration: Wild type C57BL/6 mice were purchased from Jackson Laboratory (Bar Harbor, Me.). The p27 (+/−) and p27 (−/−) knockout mice were kindly provided by Dr. Andrew Koff of Memorial Sloan-Kettering Cancer Institute (Kiyokawa et al., 1996). The mice received one of three different treatment protocols (9 mg/kg/day for 7 days, 4 mg/kg/day for 5 days, or 2 mg/kg/day for 2 days) of rapamycin via intraperitoneal (IP) injection. The control group was treated with vehicle alone (0.2% sodium CMC, polysorbate 0.25%; Sigma, St. Louis, Mo.). At the conclusion of the treatment protocol, the mice were euthanized with 100 mg/kg of pentobarbital, the aortas excised and the adventitia and surrounding connective tissue were removed. The aortas were then opened by a longitudinal cut and the intima, as well as a thin portion of the subjacent media, were removed. The media were divided into 2 mm×2 mm pieces and placed in 6 well tissue culture plates (35 mm, 22.6 mm diameter, Costar, Cambridge, Mass.) containing DMEM with 20% FBS. The culture media was changed every other day. The migration of SMC out of the explant was observed under the microscope daily following explant. The total number of cells explanted was determined for each animal's explants on a daily basis. […]

[3] = tested on: SMC obtained from wild type and p27 (−/−) animals; assay: Cell viability (trypan blue exclusion) and morphology of SMC; type: cell-based, mouse
Protocol: as §1

[4] = tested on: aortic SMC of p27 (−/−) knockout mice; assay: Aortic SMC explant migration after in vivo treatment; set-up: species or system mouse; details: 20 mg/kg/day for 7 days
Protocol: as §3

`C=CC[C@@H]1/C=C(\C)C[C@H](C)C[C@H](OC)[C@H]2O[C@@](O)(C(=O)C(=O)N3CCCC[C@H]3C(=O)O[C@H](/C(C)=C/[C@@H]3CC[C@@H](O)[C@H](OC)C3)[C@H](C)[C@@H](O)CC1=O)[C@H](C)C[C@@H]2OC` [FK506] was tested, and the “effect on murine SMC migration (FIG. 1B)” value (p27 (−/−) SMC; p27 (−/−) SMC, 48 hours) was “no effect” and the “effect on murine SMC migration (FIG. 1A)” value (wild type murine SMC; wild type SMC, 48 hours) was “no effect”.
`CO[C@H]1C[C@@H]2CC[C@@H](C)[C@@](O)(O2)C(=O)C(=O)N2CCCC[C@H]2C(=O)O[C@H]([C@H](C)C[C@@H]2CC[C@@H](O)[C@H](OC)C2)CC(=O)[C@H](C)/C=C(\C)[C@@H](O)[C@@H](OC)C(=O)[C@H](C)C[C@H](C)/C=C/C=C/C=C/1C` [rapamycin] was tested, and the “inhibition of explant migration as compared to untreated animals” value ([1]; wild type, 4 mg/kg/day for 5 days IP, p<0.05) was ~85%, the “inhibition of explant migration as compared to untreated animals” value [2] was ~85% and the inhibition at 0.1 µM (p27 (−/−) SMC; Mus musculus, p27 (−/−) SMC, 100 nM, 48 hours) was ~35%. The IC50 (p27 (−/−) SMC; Mus musculus, p27 (−/−) cells, treatment for 48 hours, read-out: IC50, inhibition of bFGF-induced SMC migration) was ~200 nM, the inhibition of migration (p27 (−/−) SMC; p27 (−/−) SMC, 1 nM to 10 nM, 48 hours) was “no significant inhibition” and the “increased IC50 in p27 (−/−) cells as compared to wild type SMC” value (p27 (−/−) SMC; p27 (−/−) vs wild type SMC) was 100 fold. For the same compound, the “cell viability, treated vs untreated” value [3] was “no differences”, the IC50 (wild type murine SMC; Mus musculus, wild type murine SMC, treatment for 48 hours, read-out: IC50, inhibition of bFGF-induced SMC migration) was ~2 nM and the “effect on SMC migration of addition immediately prior to incubation” value (wild type murine SMC; added to upper or lower chamber immediately prior to incubation, genotype not stated) was “no effect”.
`CC(=O)O[C@H]1C(=O)[C@@]2(C)[C@H]([C@H](OC(=O)c3ccccc3)[C@]3(O)C[C@H](OC(=O)[C@H](O)[C@@H](NC(=O)c4ccccc4)c4ccccc4)C(C)=C1C3(C)C)[C@]1(OC(C)=O)CO[C@@H]1C[C@@H]2O` [taxol, paclitaxel] was tested, and the “difference in inhibition of explant migration between wild type and p27 (−/−) animals” value [4] was “No differences”, the “inhibition of explant migration (FIG. 3C)” value ([4]; p27 (−/−)) was “inhibited migration” and the “inhibition of explant migration (FIG. 3C)” value ([1]; p27 (+/+), 20 mg/kg/day for 7 days) was “inhibited migration”.

Reference: US20030013638A1, “P27 prevents cellular migration” (priority 2001, published 2003)
